This is an account of results in ChEMBL document CHEMBL1158341, “A macrolactone from benzo[a]phenazine with potent activity against Mycobacterium tuberculosis” (2009).

Assay [1] has as its system Mycobacterium tuberculosis. Briefly: Antimycobacterial activity against Mycobacterium tuberculosis H37Rv ATCC 27294 after 24 hrs by microplate alamar blue assay. It is filed as functional.
For assay [2], the system named is Mycobacterium tuberculosis. Description: Antimycobacterial activity against Mycobacterium tuberculosis H37Rv ATCC 27294 at 100 ug/mL after 24 hrs by microplate alamar blue assay. It is filed as functional.

Each structure is given as a SMILES string. In brackets after ≈: the same amount, converted by molar mass. Activity calls are given as the source filed them. The calls are words filed in the database; no cut-off is given here.

As to `CC(C)(O)CCCC1(O)C(=O)c2ccccc2-c2nc3ccccc3nc21` (stereo unspecified), the MIC entry in assay [1] was “inactive”. This compound also came in with an inhibition at 100 µg/mL in assay [2] of 90%.

Consider `CC1(C)CCC(=O)c2nc3ccccc3nc2-c2ccccc2C(=O)O1`, for which it took 0.62 µg/mL (≈ 1.79 µM) to inhibit growth in assay [1] (MIC). Moreover, at 100 µg/mL the inhibition in assay [2] was 90%. For the compound `CO[C@H]1/C=C/O[C@@]2(C)Oc3c(C)c(O)c4c(O)c(c(/C=N/N5CCN(C)CC5)c(O)c4c3C2=O)NC(=O)/C(C)=C\C=C\[C@H](C)[C@H](O)[C@@H](C)[C@@H](O)[C@@H](C)[C@H](OC(C)=O)[C@@H]1C` [RIFAMPIN], the MIC in assay [1] was 1 µg/mL (≈ 1.22 µM). Regarding `CC1(C)CCC(=O)c2nccnc2-c2ccccc2C(=O)O1`, the minimum inhibitory concentration (MIC) in assay [1] turned out to be 50 µg/mL (≈ 169 µM). The compound also displayed an inhibition at 100 µg/mL in assay [2] of 90%. The like results for `CC1(C)OC(=O)c2ccccc2-c2c(nc3ccccc3[n+]2[O-])C(=O)CC1Br` (stereo unspecified) were, in that order, 25 µg/mL (≈ 56.7 µM) and 90%. The like results for `CC1(C)CC(=O)c2nc3ccccc3nc2-c2ccccc2C(=O)O1` were, in that order, 100 µg/mL (≈ 301 µM) and 90%.
